Among the data in patent US6458822B2, “2-oxo-imidazolidine-4-carboxylic acid hydroxamide compounds that inhibit matrix metalloproteinases” (Pfizer Inc., priority 2000, dated 2002) are melting point values, retold here.

One may read the melting point as the temperature of the solid-liquid transition. The molecule `COc1ccc(CN2C[C@H](C(=O)NO)NC2=O)cc1` [Example 4, (4R)-1-(4-Methoxybenzyl)-2-oxo-imidazolidine-4-carboxylic Acid Hydroxyamide] yielded a melting point of 130 to 133 °C.
